Test [1] deals with T1, recombinant homomeric hASIC1a channels (Homo sapiens, UniProt P78348).
T1 construct: expressed in transfected cells; host or cells: Xenopus laevis oocytes (nuclear microinjection of expression vector such as pcDNA3)
T1 sequence (P78348 1-528): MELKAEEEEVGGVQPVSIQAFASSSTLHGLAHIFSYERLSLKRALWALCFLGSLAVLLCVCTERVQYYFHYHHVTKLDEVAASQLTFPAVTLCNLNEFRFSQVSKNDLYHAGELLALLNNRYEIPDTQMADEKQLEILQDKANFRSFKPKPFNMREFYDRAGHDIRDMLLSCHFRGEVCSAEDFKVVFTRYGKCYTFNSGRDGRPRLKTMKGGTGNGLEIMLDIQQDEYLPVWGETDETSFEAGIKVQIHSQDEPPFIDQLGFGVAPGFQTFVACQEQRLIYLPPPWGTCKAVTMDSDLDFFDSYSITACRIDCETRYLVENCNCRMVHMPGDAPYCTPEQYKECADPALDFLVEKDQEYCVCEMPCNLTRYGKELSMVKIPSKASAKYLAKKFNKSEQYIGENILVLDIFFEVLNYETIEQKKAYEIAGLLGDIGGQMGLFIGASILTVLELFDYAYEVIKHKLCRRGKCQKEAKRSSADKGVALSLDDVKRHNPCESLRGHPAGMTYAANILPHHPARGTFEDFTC
The experiment in a line: Two-electrode voltage clamp in Xenopus laevis oocytes expressing gated ion channels (Example 4). Type of test: cell-based. In general terms: Two-electrode voltage clamp is typically applied to oocytes expressing channels or transporters.

Another test addresses T2, hASIC1a (Homo sapiens, UniProt P78348).
T2 construct: expressed in transfected cells
T2 sequence (P78348 1-528): T1 sequence (P78348 1-528)
The experiment in a line: Fluorescent calcium dye (Fluo-4-NW) assay in cells expressing hASIC1a (Example 1). Type of test: cell-based. To be noted: CHO cells stably expressing hASIC1a, mild acidic buffer, increasing concentrations; FIGS. 1A-1C. The procedure: ASIC1a expressing CHO cells are grown in culture medium (DMEM with 10% FBS), in polystyrene culture flasks ([…]) at 37° C. in a humidified atmosphere of 5% CO2. Confluency of cells should be 70-90% on day of plating. Cells are rinsed with 10 ml of PBS and cells are re-suspended by addition of culture medium and trituration with a 25 ml pipette. The cells are seeded at a density of approximately 10^4 cells/ml (50 μl/well and then brought to a total volume of 150 μl/well with culture medium, following 30 minutes incubation) in black-walled, clear bottom, 96-well plates pre-treated with poly-D-lysine (from BD Bioscience). Plated cells were allowed to proliferate for 48-72 h before loading with dye. Fluo-4-NW (500 μg, DiscoveRX) is dissolved in 110 μl DMSO. The Fluo-4-NW stock solution (1000×) is diluted with the assay buffer. A water soluble stock solution (100×) of probenicid (DiscoveRX) and a stock solution (1000×) of pluronic acid (P-127, Molecular Probes) are also added in the loading buffer containing Fluo-4NW dye. The culture medium is aspirated from the wells, and 100 μl of the Fluo-4-NW loading solution is added to each well. The cells are incubated at 37° C. for 30 min. followed by 30 min. incubation at room temperature. The assay buffer contains 90 mM NaCl, 5 mM KCl, 4 mM CaCl2, 0.8 mM MgSO4, 50 mM NMDG, 5 mM Glucose-D, 10 mM HEPES, pH 7.4. After the loading time, the loading buffer is not removed and the fluorescence is measured in FlexStation™ (Molecular Devices, USA), or any other suitable equipment known to the skilled in the art. Temperature: 25° C. First addition: 50 μl test solution at a rate of 26 μl/sec and a starting height of 125 μl. […] Reading intervals: pre-incubation—120 sec. antagonist phase, addition of MES at 145 sec. and reading time with agonist 100 sec (total run time of 240 sec.). Fluorescence obtained after stimulation is corrected for the mean basal fluorescence (in modified Assay Buffer). […] Gated-channel activity was determined by measuring intracellular calcium variation using a fluorescent calcium dye (Fluo-4-NW).

Test [2] concerns acute paw inflammation caused by intraplantar injection of λ-carrageenan. The experiment in a line: Carrageenan model for pain (Example 8). The settings on record: rat, 30 and 100 mg/kg SC, 4 h post-carrageenan. It counts as in vivo. The procedure: Acute inflammatory hyperalgesia is induced in rats by unilateral injection of 150 μl of a 3% solution of λ-carrageenan into the plantar surface of the left hind paw 3-5 hours prior to testing. Thermal hyperalgesia, mechanical allodynia, mechanical hyperalgesia, weight bearing asymmetry and paw inflammation were determined. Rats are pretreated with test compounds either administered intravenously (IV), by subcutaneous injection (SC) or by oral gavage (PO).
Thermal nociceptive thresholds are determined according to the method described elsewhere (Hargreaves et al., 1988). Briefly, through the glass surface, a radiant heat source (8V, 50 W projector bulb) is focused onto the plantar surface of the hind paw. The rat's paw-withdrawal latency to this stimulus is recorded to the nearest 0.1 s. Each latency score is an average of three trials, which are separated by at least 5 min. In all rats, both the injured and uninjured hind paws are similarly tested, allowing direct comparisons between inflamed and non-inflamed paws. […]
Mechanical hyperalgesia is determined by measuring the difference of withdrawal thresholds in response to increasing pressure in the inflamed vs contralateral paw using the Randall-Sellito Paw pressure meter (IITC Life Science) (Randall L O and Sellito J J., 1957). Briefly, rats are held in a contention jacket suspended by a stand and allowed to acclimate for 10 min. Then the tips of the paw pressure applicator are positioned close to the middle of the plantar and the dorsal area of the paw, avoiding the saphenous nerve innervations and an increasing pressure is applied until the rat removes it. Measures are performed in triplicate for each paw by alternating each paw with an interval of at least 1 min to avoid sensitization. […]
Carrageenan induced paw oedema is measured with a plethysmometer (IITC Life Science). Briefly, a mark is made on the ankles of the rat and the ipsi and contralateral paw are submerged 3 times into water up to the mark in order to determine the paw volume by calculation of water displacement.

The IC50 is the midpoint of a concentration-inhibition curve. With `Cc1cc(OC2CCN(Cc3ccccc3)CC2)c2cc(O)ccc2n1` [Compound 13, 4-(1-benzylpiperidin-4-yloxy)-2-methylquinolin-6-ol], in test [1] (Table 1, generated using oocytes as in Example 4), the IC50 was 0.1 to 10 µM. In test [1] (acid-induced inward currents in oocytes injected with hASIC1a cDNA, FIGS. 2A-2C), the “reduction in the current evoked by a mild pH stimulation” value is “clear dose-dependent reduction”. The “inhibition of acid-induced hASIC1a activity (intracellular calcium variation)” value at hASIC1a was “dose-dependently inhibited”. In test [2] (1 min prior to carrageenan), the mechanical hyperalgesia result is “dose-dependently reversed”, the “size of the inflammation” value is “reduced” and the thermal hyperalgesia result is given as “dose-dependently reversed”.

For `Cc1ccc(-c2nc(Nc3ccc(C(=O)O)cc3)c3cc(Cl)ccc3n2)cc1` [Compound 124], in test [2] (30 min prior to carrageenan), the mechanical hyperalgesia entry was “dose-dependently reversed”, the “size of the inflammation” value is given as “reduced” and the thermal hyperalgesia entry was “dose-dependently reversed”.

The record behind these values is patent US20090023773A1, “COMPOSITIONS AND METHODS FOR MODULATING GATED ION CHANNELS” (PainCeptor Pharma Corporation, priority 2007, published 2009).
